# In PubChem BioAssay AID1259407 (Chemical Carcinogenesis Research Information System (CCRIS), 2018):
# “Also recorded” adds a separate entry of the source. Active and inactive are the calls of the source. No rule for the calls is given here.
# Test system: CCRIS mutagenicity, Ames/micronucleus/aberration tests
# Assay: CCRIS mutagenicity studies
# [1] = Test System: AMES SALMONELLA TYPHIMURIUM, Strain/Indicator: TA98, Metabolic Activation: NONE, Method: PREINCUBATION
# [2] = Test System: AMES SALMONELLA TYPHIMURIUM, Strain/Indicator: TA100, Metabolic Activation: NONE, Method: PREINCUBATION
compound,measurement,setting,value
CCCCCC[C@H]1C(=O)O[C@H](C)[C@H](NC(=O)c2cccc(NC=O)c2O)C(=O)O[C@@H](C)[C@@H]1OC(=O)CC(C)C,mutagenic call,"End Point: In vitro chromosomal aberrations, Test System: Chinese hamster lung (CHL/IU) cells, Metabolic Activation: None",inactive; negative
same,mutagenic call,"End Point: In vitro chromosomal aberrations, Test System: Chinese hamster lung (CHL/IU) cells, Metabolic Activation: Rat, Liver, S-9, Phenobarbital and 5,6-benzoflavone (16.7%)",active; positive (structural aberrations)
same,mutagenic call,"End Point: In vitro chromosomal aberrations, Test System: Chinese hamster ovary (CHO-WBL) cells, Metabolic Activation: Rat, Liver, S-9, Phenobarbital and 5,6-benzoflavone (5%)",active; positive (structural changes and polyploidy)
same,mutagenic call,"End Point: In vitro chromosomal aberrations, Test System: Chinese hamster ovary (CHO-WBL) cells, Metabolic Activation: Rat, Liver, S-9, Phenobarbital and 5,6-benzoflavone (16.7%)",active; positive (polyploidy)
same,mutagenic call,"Test System: MOUSE LYMPHOMA, Strain/Indicator: L5178Y (TK+/TK-), Metabolic Activation: NONE, Method: SUSPENSION/PLATE",inactive; negative
Nc1nc2c(ncn2[C@@H]2O[C@H](COP(=O)(O)O)[C@@H](O)[C@H]2O)c(=O)[nH]1,mutagenic call,"Test System: AMES SALMONELLA TYPHIMURIUM, Strain/Indicator: TA97, Metabolic Activation: NONE, Method: PREINCUBATION",inactive; negative
same,mutagenic call,"Test System: AMES SALMONELLA TYPHIMURIUM, Strain/Indicator: TA97, Metabolic Activation: RAT, LIVER, S-9, AROCLOR 1254, Method: PREINCUBATION",inactive; negative
same,mutagenic call,"Test System: AMES SALMONELLA TYPHIMURIUM, Strain/Indicator: TA102, Metabolic Activation: NONE, Method: PREINCUBATION",inactive; negative
same,mutagenic call,"Test System: AMES SALMONELLA TYPHIMURIUM, Strain/Indicator: TA102, Metabolic Activation: RAT, LIVER, S-9, AROCLOR 1254, Method: PREINCUBATION",inactive; negative
O=C=Nc1ccc(Cc2ccccc2N=C=O)cc1,mutagenic call,"Test System: AMES SALMONELLA TYPHIMURIUM, Strain/Indicator: TA100, Metabolic Activation: RAT, LIVER, S-9, AROCLOR 1254 (30%), Method: STANDARD PLATE",inactive; negative
COc1ccc(Cc2cnc(N)nc2N)cc1OC,mutagenic call,"Test System: AMES SALMONELLA TYPHIMURIUM, Strain/Indicator: TA98, Metabolic Activation: HAMSTER, LIVER, S-9, PHENOBARBITAL AND BETA-NAPHTHOFLAVONE, Method: PREINCUBATION",inactive; negative
same,mutagenic call,[1],inactive; negative
same,mutagenic call,"Test System: AMES SALMONELLA TYPHIMURIUM, Strain/Indicator: TA98, Metabolic Activation: RAT, LIVER, S-9, PHENOBARBITAL AND BETA-NAPHTHOFLAVONE, Method: PREINCUBATION",inactive; negative
same,mutagenic call,"Test System: AMES SALMONELLA TYPHIMURIUM, Strain/Indicator: TA100, Metabolic Activation: HAMSTER, LIVER, S-9, PHENOBARBITAL AND BETA-NAPHTHOFLAVONE, Method: PREINCUBATION",active; positive
same,mutagenic call,[2],inactive; negative
same,mutagenic call,"Test System: AMES SALMONELLA TYPHIMURIUM, Strain/Indicator: TA100, Metabolic Activation: RAT, LIVER, S-9, PHENOBARBITAL AND BETA-NAPHTHOFLAVONE, Method: PREINCUBATION",inactive; negative
same,mutagenic call,"Test System: E.COLI, Strain/Indicator: WP2UVRA/PKM101, Metabolic Activation: NONE, Method: PREINCUBATION",inactive; negative
same,mutagenic call,"Test System: E.COLI, Strain/Indicator: WP2UVRA/PKM101, Metabolic Activation: RAT LIVER S-9, PHENOBARBITAL AND 5,6-BENZOFLAVONE, Method: PREINCUBATION",inactive; negative
C[C@]12CC[C@H](O)CC1=CC[C@@H]1[C@@H]2CC[C@]2(C)C(=O)CC[C@@H]12,mutagenic call,"Test System: AMES SALMONELLA TYPHIMURIUM, Strain/Indicator: TA102, Metabolic Activation: RAT LIVER S-9, PHENOBARBITAL AND 5,6-BENZOFLAVONE, Method: STANDARD PLATE",inactive; negative
same,mutagenic call,"Test System: AMES SALMONELLA TYPHIMURIUM, Strain/Indicator: TA2638, Metabolic Activation: RAT LIVER S-9, PHENOBARBITAL AND 5,6-BENZOFLAVONE, Method: STANDARD PLATE",inactive; negative
same,mutagenic call,"Test System: E. COLI, Strain/Indicator: WP2 (PKM101), Metabolic Activation: RAT LIVER S-9, PHENOBARBITAL AND 5,6-BENZOFLAVONE, Method: STANDARD PLATE",inactive; negative
same,mutagenic call,"Test System: E. COLI, Strain/Indicator: WP2 UVRA (PKM101), Metabolic Activation: RAT LIVER S-9, PHENOBARBITAL AND 5,6-BENZOFLAVONE, Method: STANDARD PLATE",inactive; negative
same,mutagenic call,"Test System: UDS RAT HEPATOCYTES, Strain/Indicator: THY INCORP (18-20 HR), Metabolic Activation: NONE, Method: LIQUID SCINTILLATION COUNTING",inactive; negative
O=c1n(CC2CO2)c(=O)n(CC2CO2)c(=O)n1CC1CO1 (stereo unspecified),mutagenic call,"End Point: IN VITRO CHROMOSOMAL ABERRATIONS, Test System: CHINESE HAMSTER LUNG CELLS (CHL), Metabolic Activation: NONE",active; positive (structural changes)
same,mutagenic call,"End Point: IN VITRO CHROMOSOMAL ABERRATIONS, Test System: CHINESE HAMSTER LUNG CELLS (CHL), Metabolic Activation: RAT, LIVER, S-9, KC-400",inactive; negative
same,mutagenic call,"End Point: IN VITRO CHROMOSOMAL ABERRATIONS, Test System: CHINESE HAMSTER OVARY CELLS (CHO), Metabolic Activation: NONE",active; positive (structural changes)
same,mutagenic call,"End Point: IN VITRO CHROMOSOMAL ABERRATIONS, Test System: CHINESE HAMSTER OVARY CELLS (CHO), Metabolic Activation: RAT, LIVER, S-9, AROCLOR 1254",active; positive (structural changes)
same,mutagenic call,"End Point: IN VITRO CHROMOSOMAL ABERRATIONS, Test System: CHL CELLS, Metabolic Activation: RAT, LIVER, S-9, SODIUM PHENOBARBITAL AND 5,6-BENZOFLAVONE",active; positive (structural changes)
same,mutagenic call,"End Point: IN VITRO CHROMOSOMAL ABERRATIONS, Test System: CHL CELLS, Metabolic Activation: S-9",active; positive; interlaboratory comparison between 2 labs; all reported positive resul; also recorded: active; positive (structural changes); interlaboratory comparison between 2 labs; both r
same,mutagenic call,"End Point: IN VITRO CHROMOSOMAL ABERRATIONS, Test System: CHO CELLS, Metabolic Activation: S-9",active; positive (structural changes); interlaboratory comparison between 2 labs; both r; also recorded: active; positive; interlaboratory comparison among 3 labs; all reported positive results
same,mutagenic call,"End Point: IN VITRO CHROMOSOMAL ABERRATIONS, Test System: CHO-LB CELLS, Metabolic Activation: NONE",active; positive
same,mutagenic call,"End Point: IN VITRO CHROMOSOMAL ABERRATIONS, Test System: CHO-LB CELLS, Metabolic Activation: RAT, LIVER, S-9, AROCLOR 1254",active; positive
same,mutagenic call,"Test System: AMES SALMONELLA TYPHIMURIUM, Strain/Indicator: TA98, Metabolic Activation: HAMSTER, LIVER, S-9, AROCLOR 1254 (30%), Method: PREINCUBATION",active; positive
same,mutagenic call,[1],active; positive
same,mutagenic call,"Test System: AMES SALMONELLA TYPHIMURIUM, Strain/Indicator: TA98, Metabolic Activation: RAT LIVER S-9, PHENOBARBITAL AND BETA-NAPHTHOFLAVONE, Method: PREINCUBATION",active; positive
same,mutagenic call,"Test System: AMES SALMONELLA TYPHIMURIUM, Strain/Indicator: TA98, Metabolic Activation: RAT, LIVER, S-9, AROCLOR 1254 (30%), Method: PREINCUBATION",active; positive
same,mutagenic call,"Test System: AMES SALMONELLA TYPHIMURIUM, Strain/Indicator: TA100, Metabolic Activation: HAMSTER, LIVER, S-9, AROCLOR 1254 (30%), Method: PREINCUBATION",active; positive
same,mutagenic call,[2],active; positive
same,mutagenic call,"Test System: AMES SALMONELLA TYPHIMURIUM, Strain/Indicator: TA100, Metabolic Activation: RAT LIVER S-9, PHENOBARBITAL AND BETA-NAPHTHOFLAVONE, Method: PREINCUBATION",active; positive
same,mutagenic call,"Test System: AMES SALMONELLA TYPHIMURIUM, Strain/Indicator: TA100, Metabolic Activation: RAT, LIVER, S-9, AROCLOR 1254 (30%), Method: PREINCUBATION",active; positive
same,mutagenic call,"Test System: AMES SALMONELLA TYPHIMURIUM, Strain/Indicator: TA1535, Metabolic Activation: NONE, Method: PREINCUBATION",active; positive
same,mutagenic call,"Test System: AMES SALMONELLA TYPHIMURIUM, Strain/Indicator: TA1535, Metabolic Activation: RAT LIVER S-9, PHENOBARBITAL AND BETA-NAPHTHOFLAVONE, Method: PREINCUBATION",active; positive
same,mutagenic call,"Test System: AMES SALMONELLA TYPHIMURIUM, Strain/Indicator: TA1537, Metabolic Activation: NONE, Method: PREINCUBATION",inactive; negative
same,mutagenic call,"Test System: AMES SALMONELLA TYPHIMURIUM, Strain/Indicator: TA1537, Metabolic Activation: RAT LIVER S-9, PHENOBARBITAL AND BETA-NAPHTHOFLAVONE, Method: PREINCUBATION",inactive; negative
same,mutagenic call,"Test System: E.COLI, Strain/Indicator: WP2UVRA, Metabolic Activation: NONE, Method: PREINCUBATION",inactive; negative
same,mutagenic call,"Test System: E.COLI, Strain/Indicator: WP2UVRA, Metabolic Activation: RAT LIVER S-9, PHENOBARBITAL AND BETA-NAPHTHOFLAVONE, Method: PREINCUBATION",inactive; negative
